According to paper PMC7734798 (ACS Medicinal Chemistry Letters, 2020):
Values joined by “and” are separate entries in the source; they are usually repeats but may differ in a detail not shown here. Identical values can stand only once. Like-named read-outs stand apart in the source and are kept apart here.

Key:
[1] = tested on: primary rat cerebellar granule neurons (CGNs); settings: for cell survival/death in CGNs, % mean ± SE of controls (MTT): 24 h treatment
[2] = tested on: human liver carcinoma immortalized cell line (HepG2); settings: 24 h treatment
[3] = PAMPA
[4] = tested on: Olig2; test: Oli-Neu proliferation marker Olig2 expression (Western blot); assay type: cell-based, mouse; settings: Oli-Neu cells, 5 μM, 48 h
Description: (§1) OPC proliferation and migration to the CNS injury site as well as their differentiation are critical steps toward remyelination in MS. HDAC activity plays a crucial role in OPC proliferation/differentiation; therefore, HDAC modulation is widely considered a promising therapeutic target for MS.[30] […] Therefore, we tested the effect of our compounds on OPC proliferation and differentiation, through cell counting, measure of filaments, and analysis of proliferation/differentiation markers (Figure 7).
(§2) Oli-Neu cells were grown in SATO medium (DMEM medium, 2 mM glutamine, 10 μg/ml insulin, 5.5 μg/ml transferrin, 38.72 nM sodium selenite, 100 µM putrescine, 520 nM L-thyroxine (T4), 500 nM triiodo-L-thyronine (T3), 200 nM progesterone, 25 μg/ml of gentamycin) supplemented with 1% heat-inactivated horse serum (HS) in a humidified, 5% CO2 incubator at 37°C. Cell culture medium and all chemicals were from Sigma-Aldrich, except for insulin-transferrin-sodium selenite 100X supplement (Life Technologies Corporation). Cells were plated on 96 well plates, previously coated with 10 μg/mL poly-L-lysine (Sigma-Aldrich; 10 μg/ml) at the density of 2.5 x 10 4/0.2 mL medium/well and treated with increasing concentrations of the compounds (0.5, 1, 5 and 10 μM).
After 24 hours, the viability was evaluated through the MTT assay.
(§3) Oli-Neu cells proliferation and differentiation assay
(§4) 48 hours, for cell counting and measure of filaments, 5 random images for each condition were acquired with an Eclipse TS100 (Nikon) microscope using a 10X objective. Cells number and filament length were measured with Fiji ImageJ2 software. After 48 hours for proliferation and 72 hours of treatment for differentiation analysis, cells were lysed in ice-cold lysis buffer (50 mM Tris-HCl pH 7.4, 1% SDS, 0.05% protease inhibitor cocktail; all from Sigma-Aldrich) and protein content was determined by using the Lowry method. […]

[5] = tested on: CNPase; test: Oli-Neu differentiation marker CNPase expression (Western blot); assay type: cell-based, mouse; settings: Oli-Neu cells, 5 μM, 72 h
Description: as §1, with “7). […]” for “7).”
After 24 hours, the viability was evaluated through the MTT assay. […]
as §4

[6] = tested on: Oli-Neu cells; test: Oli-Neu cell proliferation and differentiation assay: cell counting and measure of filaments; assay type: cell-based, mouse; settings: 5 μM, 48 h
Description: as §1
as §2, with “μM). […]” for “μM).”
as §3
48 hours, for cell counting and measure of filaments, 5 random images for each condition were acquired with an Eclipse TS100 (Nikon) microscope using a 10X objective. Cells number and filament length were measured with Fiji ImageJ2 software. […]

[7] = PAMPA-BBB permeation assay; settings: PAMPA-BBB prediction

SMILES | cell survival/death in CGNs, % mean ± SE of controls (MTT) ([1]; 5 μM) | cell survival/death in CGNs, % mean ± SE of controls (MTT) ([1]; 10 μM) | cell survival/death in CGNs, % mean ± SE of controls (MTT) ([1]; 25 μM) | cell survival/death in CGNs, % mean ± SE of controls (MTT) ([1]; 50 μM) | cell survival/death in HepG2 cells, % mean ± SE of controls (MTT) ([2]; 5 μM) | cell survival/death in HepG2 cells, % mean ± SE of controls (MTT) ([2]; 10 μM) | cell survival/death in HepG2 cells, % mean ± SE of controls (MTT) ([2]; 25 μM) | cell survival/death in HepG2 cells, % mean ± SE of controls (MTT) ([2]; 50 μM) | other results
CC/C=C\C/C=C\C/C=C\CCCCCCCC(=O)OCCNC(=O)C(CCC)CCC [compound 3] | 119 ± 17% | 116 ± 3% | 99 ± 17% | 41% and 41 ± 6 ^b % | 86 ± 10% | 92 ± 3% | 84 ± 10% | 75 ± 13% | 
CC/C=C\C/C=C\C/C=C\CCCCCCCC(=O)O [ALA, α-linolenic acid, reference compound] | 93 ± 13% | 97 ± 3% | 79 ± 12% | 45% and 45 ± 5 ^b % | 109 ± 17% | 90 ± 5% | 91 ± 13% | 92 ± 9% | 
Nc1c2c(nc3ccccc13)CCCC2 [tacrine] |  |  |  |  |  |  |  |  | BBB penetration estimation, CNS (+/−) [3]: CNS +
CCCC(CCC)C(=O)O [VPA, valproic acid, reference compound] |  |  |  |  |  |  |  |  | expression of Olig2, marker of OPCs proliferation [4]: marked decrease; neurotoxicity profile in CGNs (in words) ([1]; 5-50 μM, 24 h): negligible neurotoxicity; expression of CNPase, marker of differentiation [5]: significant increase; Oli-Neu cell number [6]: decrease cell number; Oli-Neu filament length [6]: parallel increase in filament length
CC/C=C\C/C=C\C/C=C\CCCCCCCC(=O)OCCOC(=O)C(CCC)CCC [compound 4] | 118 ± 16% | 114 ± 3% | 71 ± 8% | 45% and 45 ± 8 ^b % | 95 ± 14% | 99 ± 5% | 75 ± 12% | 74 ± 12% | 
CNC(=C[N+](=O)[O-])NCCSCc1ccc(CN(C)C)o1 [ranitidine, reference compound] |  |  |  |  |  |  |  |  | BBB penetration estimation, CNS (+/−) [7]: CNS –
